This note sets out measurements from PubChem BioAssay (NCI).

Several values for one entry are separate records, joined by “and”; a condition that tells them apart may be missing. Equal values may be shown once.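 96-well plates; 48 h exposure; 5 concentrations. Endpoints by linear interpolation between flanking doses. Not reached: highest tested concentration assigned. GI50 is the concentration that inhibits growth by half. TGI marks complete inhibition of growth.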

What all share (experiment): NCI anticancer screen, dose series, 48 h
Assay [1] concerns CCRF-CEM leukemia.
The subject of assay [2] is COLO 205 colon.
Assay [3] concerns MDA-MB-231 breast.
Assay [4] deals with MDA-MB-435.
Assay [5] deals with NCI-H460 lung.
The subject of assay [6] is NCI/ADR-RES ovarian.
Assay [7] relates to OVCAR-3 ovarian.
In assay [8] the test system is TK-10 renal.
Assay [9] relates to LOX IMVI melanoma.
Assay [10] concerns SF-539 CNS.

On to `O=C(NCc1ccccc1)c1n[nH][nH]c1=O`, for which the TGI in assay [1], in assay [2], in assay [3], in [4], in assay [5] and in [6] was > 100 µM in each case. For the same molecule, the TGI in assay [7] and in [8] was > 100 µM in each case.
As to `Cn1c(=O)c2c(nc3n2CC(C(=O)O)N3)n(C)c1=O` (stereo not given), the TGI in [2], in assay [9], in [3], in assay [4], in [5] and in assay [6] was > 100 µM in each case. In addition, the TGI in assay [7], in assay [10] and in assay [8] was > 100 µM in each case.
`c1ccc2c3[nH]c(c2c1)=Nc1ccc(cc1)-c1nc2cc(ccc2o1)N=c1[nH]c(c2ccccc12)=Nc1ccc2nc(oc2c1)-c1ccc(cc1)N=3`: the TGI in [1], in assay [2], in assay [9], in assay [4], in assay [5] and in assay [6] was > 100 µM each time.
Take `Cn1c2ccc3cc2c(=S)c2cc(ccc21)OCCOCCOCCOCCOCCOCCO3`: the TGI in [1], in assay [2], in assay [9], in assay [5], in [6] and in assay [7] was > 10 µM in each case. Also, the TGI in assay [10] and in assay [8] was > 10 µM throughout.
For the molecule `O=c1[nH]c(=S)[nH]c2c1C(c1ccc([N+](=O)[O-])cc1)c1c([nH]c(=S)[nH]c1=O)O2`, the TGI in [1], in assay [2], in assay [9], in assay [3], in assay [4] and in [5] was > 100 µM in each case. Besides, the TGI in [6], in [7] and in [8] was > 100 µM each time.
As for `COc1ccc(N=NC(=Nc2ccccc2)c2ccc(N(CCC#N)CCC#N)cc2)cc1`, the TGI was 28.6 µM in assay [2]; 59.7 µM in [3]; > 100 µM in assay [4]; > 100 µM in assay [5]; > 100 µM in assay [6]; 55.2 µM in assay [7]. Further, the TGI in [10] and in assay [8] was > 100 µM each time.
Consider `COC(=O)c1c(C)nc2c1cc(O)c1[nH]c(C)c(C)nc12`, for which the TGI in assay [1], in assay [2], in assay [9], in assay [4], in assay [5] and in [6] was > 100 µM throughout. Moreover, the TGI in assay [7], in assay [10] and in [8] was > 100 µM throughout.
Turning to `N[C@@H](CCC(=O)NCP(=O)(O)O)C(=O)O`, the TGI in assay [2], in [3], in assay [4], in assay [5], in assay [6] and in assay [7] was > 100 µM each time. For the same molecule, the TGI in [10] and in assay [8] was > 100 µM each time.
With `Nc1ncnc2c1[nH]c(=O)n2-c1ccccc1`, the TGI in assay [2], in [9], in assay [4], in assay [5], in assay [6] and in assay [7] was > 100 µM each time. Further, the TGI in [10] and in assay [8] was > 100 µM each time.
`COc1ccc2[nH]cc(/C=C(/C)c3ccncc3)c2c1`: the TGI was > 100 µM in assay [1]; 16.4 µM and 13.9 µM in assay [2]; 28.8 µM and 18.9 µM in assay [9]; 12.5 µM and 22.4 µM in assay [5]; > 100 µM in assay [7]; 19.9 µM and > 100 µM in assay [10]. Also, the GI50 in assay [6] is 2.11 µM; in assay [7], 4.16 µM; in assay [10], 4.46 µM.
Regarding `CC(=O)/C=C/C1=C(C)CCCC1(C)CC(C)C` (stereo not given), the TGI was 36.6 µM in [1]; > 100 µM in assay [2]; 39.9 µM in assay [9]; > 100 µM in assay [3]; > 100 µM in [4]; > 100 µM in [5]. The TGI in [7] was 83 µM; in assay [10] it was > 100 µM; in [8], > 100 µM.
As to `CCOC(=O)Nc1sc2c(c1C#N)CCCC2`, the TGI in assay [1], in [2], in [9], in assay [3], in assay [4] and in assay [5] was > 100 µM in each case. The TGI in assay [7] and in assay [8] was > 100 µM each time.
`Oc1ccc(Cc2cc(Cc3ccc(O)cc3)cc(Cc3ccc(O)cc3)c2)cc1`: the TGI in [9], in assay [3], in [4], in assay [5], in assay [6] and in assay [7] was > 50 µM each time. Also, the TGI in assay [10] and in assay [8] was > 50 µM in each case.
As for `Nn1c(Nc2ccc(S(=O)(=O)Nc3ncccn3)cc2)nnc(/C=C/c2c(O)ccc3ccccc23)c1=O`, the TGI was 47.9 µM in [1]; > 100 µM in assay [9]; 71 µM in [3]; 69.4 µM in [4]; 69.2 µM in assay [5]; 79.7 µM in assay [6]. For the same molecule, the TGI worked out at 55.9 µM in [7] and 75.8 µM in assay [8].
Regarding `CC(=O)Nn1c(=S)[nH]c2ccccc21`, the TGI in assay [1], in assay [2], in assay [9], in assay [3], in assay [4] and in assay [5] was > 100 µM in each case. In addition, the TGI in assay [6] and in assay [8] was > 100 µM each time.
For `COc1cccc(Nc2nc(-c3cccs3)nc3cc(OC)c(OC)cc23)c1`, the TGI is 62.3 µM in [2]; 53.8 µM in assay [3]; 96.4 µM in [4]; 79.4 µM in [5]; 63.8 µM in assay [6]; 51.1 µM in assay [7]. In addition, the TGI was 45.7 µM in [10] and > 100 µM in [8].
Turning to `COc1ccc2cc1Oc1ccc(cc1)C[C@H]1c3cc(c(OC)cc3CCN1C)Oc1c(O)c(OC)cc3c1[C@H](C2)N(C)CC3`, the TGI in [1] turned out to be 83.8 µM; in assay [2], 39.4 µM; in assay [9], 26.7 µM; in [5] it was 45.2 µM; in assay [6] it was 77.1 µM; in assay [7], 46.8 µM. In assay [10], this molecule came in with a TGI of 41.6 µM.
As to `CCOC(=O)c1c(CN2CCCC2)n(-c2ccccc2)c2cc(Br)c(O)cc12`, the TGI in assay [1] stood at 34.8 µM; in assay [2] it was 22.4 µM; in assay [9], 29.8 µM; in assay [3], 39.7 µM; in assay [4] it was 33.2 µM; in assay [5], 32.9 µM. Further, the TGI in assay [6] is 57.9 µM; in assay [7] it was 30.3 µM; in [8], 48 µM.
For the molecule `CC1CN(C)c2ccccc2N=C1NN` (stereo not given), the TGI in assay [1], in assay [2], in [3], in assay [4], in assay [5] and in assay [6] was > 100 µM throughout. The TGI in assay [7] and in assay [8] was > 100 µM in each case.
Regarding `COc1ccc(-n2c(C)nc3ccc(NC(=S)Nc4ccccc4)cc3c2=O)cc1`, the TGI in [2], in [9], in assay [3], in [4], in assay [5] and in assay [6] was > 100 µM each time. In addition, the TGI in assay [7] and in assay [8] was > 100 µM each time.
For `N#CC(Cc1ccccc1)N(CCC1=CCCCC1)C(c1ccccc1)c1ccccc1` (stereo not given), the TGI in assay [1], in [2], in [3], in assay [4], in assay [5] and in assay [6] was > 100 µM throughout. Further, the TGI in [7] and in assay [8] was > 100 µM each time.
As for `O=C(Cc1ccc(O)c(O)c1)NCc1c[nH]c2ccccc12`, the TGI was 47.8 µM in assay [1]; > 100 µM in assay [2]; > 100 µM in [5]; > 100 µM in [6]; > 100 µM in assay [7]; > 100 µM in assay [10]. The molecule also showed a TGI in [8] of 69.5 µM.
As for `O=C1C=C[C@@H](COC2OC(CO)C(O)C(O)C2O)O1` (stereo not given in full), the TGI in assay [1] is 13.9 µM and 40.8 µM; in assay [2], 14.4 µM and 19.5 µM; in [9], 15.8 µM and 16.4 µM; in assay [5], 14.8 µM and 32.3 µM; in [6] it was 28 µM and 34.8 µM; in assay [7] it was 22.4 µM and 31.5 µM. For the same molecule, the TGI in [10] is 17.6 µM and 18.4 µM. Further, the figures for the GI50 in assay [2], in [5] and in [7] were 3.44 µM, 3.68 µM and 10.6 µM, respectively.
Regarding `C/C(=C\CBr)CCC(Br)C(C)(C)Br` (stereo not given), the TGI in assay [1], in assay [2], in [3], in [4], in assay [5] and in assay [6] was > 100 µM each time. Also, the TGI in [7], in assay [10] and in assay [8] was > 100 µM each time.
Consider `O=C(OCc1ccccc1)N1CCNCCN(C(=O)OCc2ccccc2)CCNCC1`, for which the TGI in [1] was > 100 µM; in assay [9], 27.5 µM; in assay [4], 64.6 µM; in assay [5] it was 49.4 µM; in assay [6], > 100 µM; in assay [7], > 100 µM. The TGI is 29.2 µM in assay [10] and > 100 µM in assay [8].
In the case of `CC1(C)O[C@H]2OC(CO[Si](C)(C)C(C)(C)C)C(N=[N+]=[N-])[C@H]2O1` (stereo not given in full), the TGI in assay [1] was 38.3 µM; in [9], 35.9 µM; in assay [4] it was 66.4 µM; in assay [5] it was 43.7 µM; in assay [6] it was 37.7 µM; in assay [7], 38.1 µM. The TGI is 36 µM in assay [10] and 36.7 µM in [8].
Regarding `O=C1c2cc3c(cc2-c2c1c1ccc(F)cc1c(=O)n2C[C@H](O)[C@@H](O)[C@H](O)CO)OCO3`, the GI50 was 0.0344 µM in assay [1]; 0.106 µM in [2]; 0.0299 µM in assay [9]; 0.325 µM in assay [3]; 0.112 µM in assay [4]; 0.0989 µM in [7]. Besides, the GI50 is 0.0289 µM in [10] and 0.262 µM in [8]. Further, the TGI in [1] was determined as 2.18 µM; in [2], 0.546 µM; in assay [9], 0.137 µM; in assay [3] it was 0.984 µM; in [4] it was 0.279 µM; in assay [7] it was 0.476 µM. The TGI in [10] was 0.138 µM; in assay [8], 0.858 µM.
`CC(=O)N1C(C(=O)NC2CCCCC2)CSC1c1ccccc1` (stereo not given): the TGI in [1], in assay [9], in assay [4], in assay [5], in assay [6] and in assay [7] was > 100 µM each time. For the same molecule, the TGI in assay [10] and in [8] was > 100 µM throughout.
Consider `Oc1ccc2c(c1)c1c(n2CCN2CCOCC2)-c2ccccc2CC1`, for which the TGI was > 100 µM in [1]; 57.8 µM in [9]; 80 µM in assay [3]; 44.2 µM in assay [5]; 74.2 µM in assay [6]; 49.5 µM in assay [7]. For the same molecule, the TGI came out at 44.9 µM in assay [10] and 77.9 µM in assay [8].
With `COC(=O)[C@@H](O)[C@](O)(CCC(C)C)C(=O)O[C@@H]1C(OC)=C[C@]23CCCN2CCc2cc4c(cc2[C@H]13)OCO4`, the TGI in assay [1] is > 27 µM; in assay [2], 2.99 µM; in assay [9] it was 5.21 µM; in [5], 1.7 µM; in assay [6], 71.4 µM; in assay [7], 7.15 µM. This molecule also came in with a TGI in assay [10] of 3.16 µM.
For `CC1(C(=O)O)CCC2(C)CCC3(C)C(=CC(=O)C4C5(C)CCC(O)C(C)(C)C5CCC43C)C2C1` (stereo not given), the TGI in assay [1] is 95.9 µM; in assay [2], > 100 µM; in assay [9], 41.8 µM; in [4] it was > 100 µM; in [6], > 100 µM; in assay [7], 37.4 µM. For the same molecule, the TGI in [10] is 32.5 µM; in [8], > 100 µM.
